Columns and labels:
[1] = Emulsion stability by TD-NMR droplet-size distribution; type: physicochemical; conditions: for Δd3 day 5 / Δσ day 5 / Δd3 day 14 / Δσ day 14: 1 mM acid in 1% Na2SO4, 1:1 with GB oil; for Δd3 day 5 / Δσ day 5: change days 1-5; for Δd3 day 14 / Δσ day 14: change days 1-14; for effect on emulsion stability compared to 1% Na2SO4 brine: 1 mM acid, day 14
Experimental: Dispersions were prepared in a 1:1 volume ratio with GB oil to each acid (1 mM) in the 1% Na2SO4 brine. The dispersions were emulsified via […] at 6500 rpm for 30 seconds in an Ultra Turrax T25 basic (IKA-Werke) homogenizer. The emulsions were then homogenized for 3 minutes at 6500 rpm to obtain homogeneous droplets for characterization.
Water-in-oil emulsions were prepared for each acid and the time evolution was tracked on a Bruker Biospin Minispec mq20 time domain nuclear magnetic resonance (TD-NMR). This instrument provides information about the polydispersity (σ) of the system and the diameter size (di). The variable i can represent either the diameter in terms of the number of droplets (1=0) or the diameter in terms of average volume of the droplets (1=3). The unimodal droplet size distribution for the created emulsions can be calculated according to Equation 2:
[formula] where qi is the log-normal distribution, d50,i is the geometric mean diameter. Bruker software is used for the NMR and that calculated the droplet size distribution. The change in diameter in relation to the volume is useful because it is indicative of coalescence.
This technique is advantageous as it is non-invasive and independent of the opacity of the dispersion. […] Droplet coalescence and emulsion stability was inferred by tracking the droplet-size distribution density over time.
The influence of the specific acids on coalescence was evaluated with restricted diffusion in a time-domain nuclear magnetic resonance (TD-NMR) system. […] Measurements were recorded within the first hour after emulsification, and every day for days 1-5, and then on days 7, 10, and 14. The TD-NMR system calculates a median diameter, which relates to the number of droplets present (d0) and the volume of the droplets present (d3). […] The Bruker system software also provides a standard deviation, σ, which is applicable for both diameter values and relates to the polydispersity of the droplets in solution.

[2] = Interfacial shear viscoelasticity, double-wall ring rheometer; type: physicochemical; conditions: for tan (δ) / Fractional G′ / Fractional G″: 1 mM acid in 1% Na2SO4 brine, 25° C.; for tan (δ): compared to the brine; for Fractional G′ / Fractional G″: compared to the brine viscoelastic moduli
Experimental: Rheological experiments were conducted with the GB oil and a low-salinity brine (1% Na2SO4) spiked with low concentration of organic acids using a TA Instruments AR-G2 Rheometer with a double-wall ring geometry. Measurement of the oil-water interface was performed using the rheometer, as the ring of the rheometer was placed directly on the denser phase, with the second phase added carefully at the end. The shear viscoelasticities were recorded at 25° C. Measurements were run in oscillatory time-sweep mode to measure the shear viscoelastic moduli, as the oscillatory time-sweep mode has high sensitivity to measure low frequency and torque values.
The stress response of the oil-water interface can be calculated utilizing Equation 1: σ(t)=γo[G′(ω)sin(ωt)+G″(ω)cos(ωt)] where σ represents the shear stress, t represents the time, γo is the amplitude of the strain, G′(ω) is the elastic or real modulus, and G″(ω) is the viscous or imaginary modulus. The elastic modulus is the instantaneous response to stress and the viscous modulus is the delayed response quantified by a phase angle. The tangent of this angle is represented by the following equation: […]
Experiments were run in the linear viscoelastic region, determined with a strain sweep test at fixed frequency on individual samples to determine appropriate values for each parameter in the following experiments.
The rheometer was cleaned with toluene and methanol and then air-dried; the Pt/Ir ring of the rheometer was flamed to remove residual contaminants and salts before each experiment. The rheometer was positioned on an air-table and was calibrated for geometry, inertia, and friction before each experiment was prepared. The brine was filtered through a 0.45 μm SFCA filter and examined for bubbles before the ring was lowered to sit at the interface. Next, the oil was added on top of the brine in a manner selected to avoid disruption of the interface formed. Without moving the table, the setup was covered and allowed to run for a minimum of five days. The viscoelasticity was measured several times during the first day and then routinely once a day for the remainder of the experiment duration. The temperature was controlled with the Peltier plate beneath the sample holder. When cleaning the rheometer at the end of the experiment, care was taken to recover as much aqueous phase as possible for NMR and pH measurements.
The interfacial viscoelasticity measurements were conducted on samples having a ratio of two parts aqueous phase to one part oil phase. […]

[3] = Oil bridge neck diameter / snap-off experiment; conditions: 1 mM acid in 1% Na2SO4, GB oil bridge; for delay of snap-off / bridge failure compared to low-salinity brine: 1 hour aging
Source text: A bridge technique was executed on a modified First Ten Angstroms (FTA) 1000 pendant drop instrument using two opposing vertical needles. The slenderness ratio (A) is defined as the length of the bridge (L) divided by the diameter of the needle (D). A large slenderness ratio is associated with an unstable bridge. The bridge goes through at least two processes. First the oil is bridged between the opposing needles, suspended in the brine and aged up to one hour. While the bridge is aging, the interfacial elasticity increases and the interfacial tension decreases. There are no disruptions or deformation of the system, and thus the surface stress is equal to the interfacial tension. After aging, the bridge goes under the second process during which the oil comprising the bridge is removed at 0.1 μL/s. This response is tracked until bridge failure. During this process, due to the increase in the elasticity of the interface, an extensional longitudinal and compressive circumferential surface stress contribute to the process. The behavior of the oil when the bridge breaks is indicative of the dominant environment of the oil-water interface—e.g., whether the environment is characteristic of an elastic break or an inelastic break. An enhanced elastic break, resulting from the formation of a thick interface, can appear as pointy interface and can show very little recovery of its initial shape, while a viscous break can reform the initial appearance of the oil before the formation of the bridge as shown in FIGS. 8A-8C. FIG. 8A is an image of the bridge initially before any aging or oil removal. FIG. 8B is an image showing the behavior observed in an inelastic break, and FIG. 8C is an image showing the behavior observed in an elastic break. Increased viscoelasticity suppresses interfacial snap-off and helps to sustain a more continuous oil phase. An elastic bridge is much less prone to break and therefore can pull more volumes of oil out (more production).
The behavior of the bridge is monitored with an APPRO camera at a frame rate of 60 frames per second and its geometry is tracked by measuring the neck diameter (ND). The neck diameter is the lowest radius along the vertical axis. The critical neck diameter (CND) is the value corresponding to the last frame of the connected bridge. The ratio of CND/ND is a stability proxy, and assumptions are made that a value close to zero indicates prevalent elastic forces.

[4] = Solubility of acids in brine; type: physicochemical; conditions: no pH adjustment
Experimental: A 1% Na2SO4 brine, equivalent to 2.24 mM (low salinity) and an ionic strength of 6.7 mM, was prepared and vacuumed for two hours before use. The brine was selected because it served as the baseline aqueous phase for the coreflooding experiments. Brine aliquots were then mixed with each of the 18 acid solutions at various concentrations and mixed into solution for several days. […] No adjustments were made to the brine to bring the acids into solution; at higher brine pH, larger naphthenic acids (NAs) solubilize more readily, while smaller ones can often dissolve at neutral pH. At higher pH, the potential for micelle and reverse micelle formation increases. However, embodiments described herein relate to acids that partition naturally, rather than those coaxed from the oil phase, so pH adjustments were not made in order to examine the influence of the acids in the system.
Additionally, the naphthenic acid mixture (NAmix1) was analyzed.

Compound	Δd3 day 5 [1]	Δσ day 5 [1]	Δd3 day 14 [1]	Δσ day 14 [1]	effect on emulsion stability compared to 1% Na2SO4 brine [1]	tan (δ) ([2]; GB oil)	Fractional G′ ([2]; GB oil)	Fractional G″ ([2]; GB oil)	aging time after which skin was observed [3]	bridge break behaviour (elastic / inelastic) [3]	delay of snap-off / bridge failure compared to low-salinity brine [3]	solubility in 1% Na2SO4 brine [4]	G′ value (elastic modulus) ([2]; 1 mM acid, day 5, GB oil)	G″ value (viscous modulus) ([2]; 1 mM acid, day 5, GB oil)	interface relative to un-acidified brine values ([2]; 10 mM acid, day 5, GB oil)	concentration at which G′ and G″ plateau (acid believed to form aggregates) ([2]; GB oil, 1% Na2SO4 brine)	aging time after which solid-like film (skin) was visible [3]
O=C(O)[C@@H]1CCCN1 [L-Proline, L-proline]	1.045	0.1325	1.115	0.1722	stabilize the emulsions	114%	53%	47%									
O=C(O)C1CCCC1 [NA14, cyclopentane carboxylic acid]	1.3475	1.3475	1.4425	0.259	stabilize the emulsions	90.6%	151%	137%	~12 h	more elastic break	delays snap-off						
O=C(O)C1CCCCC1 [NA18, cyclohexane carboxylic acid]	1.5395	0.1263	1.572	0.2238	stabilize the emulsions	127%	42%	53.5%		asymmetric elastic skin	delayed bridge failure the longest	especially soluble at higher concentrations	about 100 mPa	about 35 mPa	21.2%	above 2.5 mM	about 10 minutes
Cc1ccc(C(=O)O)cc1 [NA12, p-toluic acid]	1.315	0.1998	1.6025	0.3463	does not encourage coalescence	189%	25.8%^	48.8%									

— patent publication US12410358B2, “Organic acid-based enhanced waterflooding” (UNIVERSITY OF WYOMING, priority 2018, dated 2025)
